Experimental data as given in patent publication US5089623A, “Certain imidate insecticides” (Imperial Chemical Industries Plc, priority 1990, dated 1992).

Assays:
Format in all cases: in vivo
[1] = tested on: Tobacco Budworm [Heliothis virescens (Fabricius)] eggs; assay: Tobacco budworm egg test (TBW-E); conditions: percent in solution
From the text: Eggs: Paper towel patches of 2-day old eggs of the tobacco budworm were dipped in acetone solutions of the test compound and placed in petri dishes containing a portion of larval rearing medium. […] Test concentrations ranged from 0.1% downward.

[2] = tested on: Housefly [Musca domestica]; assay: Housefly insecticidal test (HF); conditions: per 25 female houseflies, 48 hours
[3] = tested on: Cabbage Looper [Trichoplusia ni (Hubner)]; assay: Cabbage looper test (CL); conditions: second-instar larvae, 3-5 days, percent in solution

SMILES | LC50 TBW E [1] [%] | LC50 HF [2] [µg] | LC50 CL [3] [%]
CCC(C)C(=Nc1ccc(Cl)c(Cl)c1)OCc1cccc(Oc2ccc(F)cc2)c1 (stereo not drawn) [Compound 211] | > 0.1 | 61 | 0.0017
CCOc1ccc(N=C(OCc2cccc(Oc3ccccc3)c2)C(C)(C)C)cc1 [Compound 164] | > 0.1 | > 100 | 0.005
CC(C)(C)C(=Nc1cccc(Cl)c1)OCc1cccc(Oc2ccccc2)c1 [Compound 12] | > 0.1 | > 100 | 0.008
CC(C)C(=Nc1cccc(C(F)(F)F)c1)OCc1ccc(OCc2ccc(F)cc2)cc1 [Compound 488] | > 0.1 | > 100 | 0.025
COc1ccc(Oc2cccc(COC(=Nc3ccc(F)cc3)C(C)C)c2)cc1 [Compound 220] | > 0.1 | 85 | 0.007
Cc1cc(N=C(OCc2cccc(Oc3ccccc3)c2)C(C)C)ccc1Br [Compound 127] | 0.04 | 58 | 0.01
CC(C)C(=Nc1ccc2c(c1)OCO2)OCc1cccc(Oc2ccccc2F)c1 [Compound 190] | 0.023 | 7.5 | 0.0004
Cc1cc(N=C(OCc2cccc(Oc3ccc(F)cc3)c2)C(C)C)ccc1F [Compound 236] | 0.06 | 7 | 0.0018
Cc1ccc(Oc2cccc(COC(=Nc3ccc(F)cc3)C(C)C)c2)cc1 [Compound 231] | > 0.1 | > 100 | 0.003
CCC(=Nc1ccc(CC)cc1)OCc1cccc(Oc2ccccc2)c1 [Compound 157] | > 0.1 | 25 | 0.009
CC(C)C(=Nc1ccc(C(C)(C)C)cc1)OCc1cccc(Oc2ccc(Cl)cc2)n1 [Compound 497] | > 0.1 | > 100 | 0.0075
CC(C)C(=Nc1ccc(Cl)cc1)OCc1cccc(Oc2ccc(Br)cc2)c1 [Compound 237] | 0.075 | 50 | 0.0006
CC(C)C(=Nc1cc(F)c(F)cc1F)OCc1cccc(Oc2ccccc2)c1 [Compound 58] | 0.06 | 16 | 0.002
CC(C)(F)C(=Nc1ccc(F)c(Cl)c1)OCc1cccc(Oc2ccc(F)cc2)c1 [Compound 309] | 0.07 | > 100 | 0.00017
COc1ccc(N=C(OCc2cccc(Oc3ccc(F)cc3)c2)C(C)C)cc1Cl [Compound 110] | 0.04 | 26 | 0.007
CC(C)C(=Nc1ccc(F)cc1)OCc1coc(Cc2ccccc2)c1 [Compound 491] | 0.08 | 9 | 0.0028
CC(C)C(=Nc1ccc(C(F)(F)F)cc1)OCc1ccc(F)c(Oc2ccc(F)cc2)c1 [Compound 287] | > 0.1 | > 100 | 0.0025
CCOc1cccc(N=C(OCc2cccc(Oc3ccccc3)c2)C(C)C)c1 [Compound 171] | > 0.1 | 80 | 0.01
CC(C)C(=Nc1cccc(C(F)(F)F)c1)OC(C)c1cccc(Oc2ccccc2)n1 (stereo not drawn) [Compound 499] | > 0.1 | 63 | 0.0024
CC(C)C(=Nc1ccc(F)c(F)c1)OCc1cccc(Oc2ccc(F)cc2F)c1 [Compound 214] | 0.04 | 19 | 0.0003
CC(C)C(=Nc1cccc(F)c1)OCc1cccc(Oc2ccc(F)cc2)c1 [Compound 200] | 0.1 | 7.5 | 0.00075
CC(C)C(=Nc1ccc2c(c1)OC(C)(C)O2)OCc1cccc(Oc2ccc(Cl)cc2)c1 [Compound 241] | > 0.1 | > 100 | 0.0004

SMILES | LC50 TBW E [1] [%] | LC50 HF [2] [µg] | LC50 CL [3] [%]
CC(C)C(=Nc1cccc(C(F)(F)F)c1)OCc1cccc(OCc2ccc(F)cc2)c1 [Compound 489] | > 0.1 | > 100 | < 0.1
CC(C)C(=Nc1ccc(Br)c(Br)c1)OCc1cccc(Oc2ccc(F)cc2)c1 [Compound 251] | 0.06 | 25 | 0.0005
Cc1ccc(N=C(OCc2cccc(Oc3ccccc3)c2)C(C)(C)C)cc1Cl [Compound 107] | > 0.1 | > 100 | 0.007
CC(Br)C(=Nc1ccc(F)c(Cl)c1)OCc1cccc(Oc2ccccc2)c1 (stereo not drawn) [Compound 118] | > 0.1 | 18 | 0.0013
Clc1cccc(N=C(OCc2cccc(Oc3ccccc3)c2)C2CC2)c1 [Compound 24] | 0.1 | 25 | 0.005
COC(C)C(=Nc1ccc(Cl)cc1)OCc1cccc(Oc2ccccc2)c1 (stereo not drawn) [Compound 22] | 0.08 | 15 | 0.004
COc1ccc(Oc2cccc(COC(=Nc3ccc(F)c(Cl)c3)C(C)C)c2)cc1 [Compound 221] | > 0.1 | 62 | 0.0027
CC(C)C(=Nc1ccc2c(c1)OC(C)(C)O2)OCc1cccc(Oc2ccccc2)c1 [Compound 182] | 0.04 | 28 | 0.0006
COc1cc(N=C(OCc2cccc(Oc3ccccc3)c2)C(C)C)cc(C(F)(F)F)c1 [Compound 76] | 0.05 | 20 | 0.002
CC(C)C(=Nc1cc(C(F)(F)F)ccc1F)OCc1cccc(Oc2ccccc2)c1 [Compound 84] | 0.1 | 93 | 0.006
COc1ccc(N=C(OCc2cccc(Oc3ccccc3)c2)C(C)C)cc1OC [Compound 169] | > 0.1 | 10 | 0.009
COCc1c(F)c(F)c(COC(=Nc2ccc3c(c2)OCO3)C(C)C)c(F)c1F [Compound 501] | > 0.1 | 20 | 0.00045
CCC(=Nc1ccc(C(C)C)cc1)OCc1cccc(Oc2ccc(F)cc2)c1 [Compound 320] | > 0.1 | > 100 | 0.0075
CC(C)C(=Nc1ccc2c(c1)CCO2)OCc1cccc(Oc2ccccc2)c1 [Compound 243] | > 0.1 | 9 | 0.005
CC(C)(Cl)C(=Nc1ccc(Cl)c2ccccc12)OCc1cccc(Oc2ccccc2)c1 [Compound 111] | > 0.1 | > 100 | 0.1
CC(C)(C)C(=Nc1ccc(Br)c(Cl)c1)OCc1cccc(Oc2ccccc2)c1 [Compound 106] | > 0.1 | > 100 | 0.014
CC(C)(C)C(=Nc1ccc(Cl)c([N+](=O)[O-])c1)OCc1cccc(Oc2ccccc2)c1 [Compound 105] | > 0.1 | > 100 | 0.018
CC(C)C(=Nc1cccc(C(F)(F)F)c1)OCc1cccc(Oc2ccc(Br)cc2)n1 [Compound 493] | 0.05 | 36 | 0.0008
CC(C)C(=Nc1ccc(Cl)c(C(F)(F)F)c1)OCc1cccc(Oc2cccc(F)c2)c1 [Compound 195] | > 0.1 | > 100 | 0.002
Cc1ccc(N=C(OCc2cccc(Oc3ccccc3)c2)C(C)(C)C)cc1C [Compound 167] | > 0.1 | > 100 | 0.02
CC(C)C(=Nc1cccc(C(F)(F)F)c1)OCc1cccc(Oc2ccncc2)c1 [Compound 469] | > 0.1 | 40 | 0.02
CC1CC1C(=Nc1ccc(Cl)cc1)OCc1cccc(Oc2ccccc2)c1 (stereo not drawn) [Compound 15] | > 0.01 | > 100 | 0.025
